Measured values reported in patent US5792742A, “Fibrin-binding peptide fragments of fibronectin” (New York University, priority 1994, dated 1998).

System: fibrin
Test: Direct binding ELISA on fibrin-coated microtiter plates
Description: The preparation of fibrin coated microtiter plates was adapted from a method described by Christman et al., Biochim. Biophys. Acta. […] Microtiter (Immulon) plates were coated with fibrinogen at a concentration of 50-1000 ng/well/0.1 ml of Tris buffered saline (TBS). The plates were dried for 24 hours at 37° C. and 0.1 ml of thrombin (20 NIH units/100 ml) containing TRASYLOL™ (aprotinin) (400 K.I units/100 ml) in TBS was added to each well and the plates incubated for 2 hours at 37° C. Each well is washed one time with PBS and the plates are blocked for 1.5 hours with 1% BSA in TBS to prevent non-specific binding. A constant concentration of fibronectin and the 11 kDa fibrin-binding polypeptide (500 ng/0.1 ml) in 50 mM Tris-HCl, 0.1M NaCl, pH 7.6 (FBB) were incubated separately with fibrin coated microtiter wells (50-1000 ng) for 1 hr at room temperature (23° C.).
The wells were washed three times with FBB containing 0.05% Tween 20 (FBBT) and incubated for 1 hour with 0.05 ml of the a polyclonal anti-fibronectinantiserum (Calbiochem) or the purified IgG fraction of anti-11 kDa rabbit antisera, respectively, at a concentration of 1 μg/ml in FBBT containing 0.1% BSA (FBBT/BSA). Following three washes with FBBT, the wells were incubated with 0.05 ml of alkaline phosphatase labeled goat anti-rabbit IgG (TAGO) at a concentration of 2 μg/ml in FBBT/BSA, for 1 hour. The reaction was developed with 0.05 ml of […] p-nitrophenyl phosphate (Sigma phosphatase substrate tablets) in 10% diethanolamine, pH 9.8 containing 1 mM MgCl2.
2. […] Binding of ^4 F1.^5 F1 to fibrin coated microtiter plates was examined by ELISA as described above. Microtiter wells were coated with fibrin (50-1000 ng) and blocked, as described earlier, and incubated with the module pair ^4 F1.^5 F1 (500 ng/0.1 ml or 1000 ng/0.1 ml in FBB) for 1 hour, at room temperature.
Fibrin-binding activity was also assessed by an ELISA. Fn was reacted with fibrin-coated microtiter plates and bound Fn was determined by incubation with a polyclonal rabbit anti-Fn antiserum followed by alkaline phosphatase-labeled anti-rabbit Ig.

Q: “11 kDa FBP: 11 kDa C-terminal proteolytic (subtilisin) fibrin-binding fragment of human plasma fibronectin, residues 2123-2232 of SEQ ID NO:1” was tested. Which “amount bound relative to intact fibronectin on a mole-per-mole basis” value did it give?
A: Its value is 20 times.

Q: And the “amount giving maximum binding per 550 ng of fibrin” value?
A: Its value is “approximately 500 ng”.

Q: What about the “binding to fibrin-coated wells” value (ELISA, room temperature, 1 hr) of the same substance?
A: Its value is “bound to the fibrin-coated wells in a concentration dependent manner”.
